The source of these data is ChEMBL document CHEMBL4304773, “Nitroimidazole-containing compounds and their antibacterial and antitubercular activities” (2019).

The subject of assay [1] is Klebsiella aerogenes. Briefly: Antibacterial activity against Enterobacter aerogenes PTCC 1221 after 18 hrs by two fold serial dilution. The assay is classed as functional. To be noted: PTCC 1221, 18 h.
The test system of assay [2] is Escherichia coli. As to the kind of experiment: Antibacterial activity against Escherichia coli ATCC 8739 after 18 hrs by two fold serial dilution. As to conditions: ATCC 8739, 18 h. The assay is classed as functional.
The test system of assay [3] is Staphylococcus aureus. As to the kind of experiment: Antibacterial activity against Staphylococcus aureus ATCC 6538 after 18 hrs by two fold serial dilution. The assay is classed as functional. As to conditions: ATCC 6538, 18 h.
The subject of assay [4] is Klebsiella pneumoniae. As to the kind of experiment: Antibacterial activity against Klebsiella pneumoniae ATCC 10031 after 18 hrs by two fold serial dilution. The assay is classed as functional. As to conditions: ATCC 10031, 18 h.
Assay [5] has as its system Bacillus subtilis. Briefly: Antibacterial activity against Bacillus subtilis PTCC 1023 after 18 hrs by two fold serial dilution. As to conditions: PTCC 1023, 18 h. It is filed as functional.
For assay [6], the system named is Helicobacter pylori. As to the kind of experiment: Antibacterial activity against Helicobacter pylori. It is filed as functional.
Assay [7] relates to Helicobacter pylori. Briefly: Antibacterial activity against Helicobacter pylori NCTC 11637. It is filed as functional.
Assay [8] relates to Helicobacter pylori. As to the kind of experiment: Antibacterial activity against metronidazole-resistant Helicobacter pylori clinical isolates. It is filed as functional.
Assay [9] has as its system Staphylococcus aureus. Briefly: Antibacterial activity against methicillin-sensitive Staphylococcus aureus by two fold dilution method. It is filed as functional.
Assay [10] has as its system Staphylococcus epidermidis. Briefly: Antibacterial activity against methicillin-sensitive Staphylococcus epidermidis by two fold dilution method. The assay is classed as functional.
For assay [11], the system named is Salmonella typhimurium. Briefly: Antibacterial activity against Salmonella typhimurium. As to conditions: Salmonella enterica. The assay is classed as functional, Salmonella enterica subsp. enterica serovar Typhimurium.
The subject of assay [12] is Staphylococcus aureus. As to the kind of experiment: Antibacterial activity against Staphylococcus aureus. It is filed as functional.
In assay [13] the test system is Bacillus subtilis. Briefly: Antibacterial activity against Bacillus subtilis. The assay is classed as functional.
The test system of assay [14] is Escherichia coli. Briefly: Antibacterial activity against Escherichia coli. It is filed as functional.
Assay [15] deals with Pseudomonas aeruginosa. Briefly: Antibacterial activity against Pseudomonas aeruginosa. It is filed as functional.
The test system of assay [16] is Proteus. As to the kind of experiment: Antibacterial activity against Proteus. It is filed as functional.
The subject of assay [17] is Proteus vulgaris. As to the kind of experiment: Antibacterial activity against Proteus vulgaris. It is filed as functional.
Assay [18] deals with Klebsiella aerogenes. Briefly: Antibacterial activity against Klebsiella aerogenes. It is filed as functional.
Assay [19] relates to Staphylococcus epidermidis. As to the kind of experiment: Antibacterial activity against Staphylococcus epidermidis. The assay is classed as functional.
The test system of assay [20] is Enterococcus faecalis. As to the kind of experiment: Antibacterial activity against Enterococcus faecalis. It is filed as functional.
In assay [21] the test system is Candida albicans. Briefly: Antifungal activity against Candida albicans. The assay is classed as functional.
The test system of assay [22] is Helicobacter pylori. As to the kind of experiment: Antibacterial activity against drug-sensitive Helicobacter pylori assessed as zone of inhibition at 8 ug/disc. As to conditions: read-out: IZ. It is filed as functional.
Assay [23] relates to Helicobacter pylori. Briefly: Antibacterial activity against Helicobacter pylori clinical isolate assessed as zone of inhibition at 8 ug/disc. It is filed as functional. As to conditions: read-out: IZ.
Assay [24] has as its system Klebsiella pneumoniae. Briefly: Antibacterial activity against Klebsiella pneumoniae. The assay is classed as functional.
For assay [25], the system named is Staphylococcus aureus. Briefly: Antibacterial activity against Staphylococcus aureus ATCC 25923. The assay is classed as functional.
Assay [26] has as its system Staphylococcus aureus. As to the kind of experiment: Antibacterial activity against Staphylococcus aureus ATCC 29213. It is filed as functional.
Assay [27] deals with Pseudomonas aeruginosa. As to the kind of experiment: Antibacterial activity against Pseudomonas aeruginosa ATCC 27853. The assay is classed as functional.
In assay [28] the test system is Acinetobacter baumannii. As to the kind of experiment: Antibacterial activity against Acinetobacter baumannii. It is filed as functional.
In assay [29] the test system is Escherichia coli. Briefly: Antibacterial activity against Escherichia coli ATCC 25922. The assay is classed as functional.
The test system of assay [30] is Staphylococcus aureus. As to the kind of experiment: Antibacterial activity against methicillin-resistant Staphylococcus aureus N315. The assay is classed as functional.
In assay [31] the test system is Staphylococcus epidermidis. Briefly: Antibacterial activity against Staphylococcus epidermidis ATCC 12228 after 18 hrs by two fold serial dilution. It is filed as functional. As to conditions: ATCC 12228, 18 h.

≈ marks a conversion by molar mass, not a printed value.

For `Cn1cnc([N+](=O)[O-])c1Sc1nnc(-c2ccc([N+](=O)[O-])o2)s1`, the MIC in assay [1] was greater than 64 µg/mL; in assay [2], greater than 64 µg/mL; in [3], 4 to 32 µg/mL (≈ 11.3 to 90.3 µM); in [4], greater than 64 µg/mL; in assay [5], greater than 64 µg/mL.
On to `Cc1ncc([N+](=O)[O-])n1CCOc1no[n+]([O-])c1S(=O)(=O)c1ccccc1`, for which the MIC90 in assay [6] lay in the range of 1 to 4 µg/mL (≈ 2.53 to 10.1 µM); in assay [7] it was 0.5 to 32 µg/mL (≈ 1.26 to 80.9 µM); in assay [8], 0.5 to 32 µg/mL (≈ 1.26 to 80.9 µM).
`COc1c(N2C[C@@H]3CCCN(C[C@@H](O)Cn4c([N+](=O)[O-])cnc4C)[C@@H]3C2)c(F)cc2c(=O)c(C(=O)O)cn(C3CC3)c12`: the MIC in assay [9] and in assay [10] was 0.03 to 2 µg/mL (≈ 0.0513 to 3.42 µM) in each case.
As for `Cc1ncc([N+](=O)[O-])n1CCCNS(=O)(=O)c1ccc(NCc2ccc(Cl)cc2Cl)cc1`, the MIC was 64 to 128 µg/mL (≈ 128 to 257 µM) in assay [11]; 64 to 128 µg/mL (≈ 128 to 257 µM) in assay [12]; 64 to 128 µg/mL (≈ 128 to 257 µM) in assay [13]; 64 to 128 µg/mL in [14]; 64 to 128 µg/mL in assay [15]; 64 to 128 µg/mL (≈ 128 to 257 µM) in [16].
Take `CC(=O)Nc1nnc(Sc2c([N+](=O)[O-])ncn2C)s1`: the MIC is greater than 64 µg/mL in assay [1]; greater than 64 µg/mL in [2]; 4 to 32 µg/mL (≈ 13.3 to 107 µM) in [3]; greater than 64 µg/mL in assay [4]; greater than 64 µg/mL in assay [5].
With `Cc1ccc(/C=C2\SC(=O)N(CCn3c([N+](=O)[O-])cnc3C)C2=O)cc1`, the MIC in [17] was 31.2 to 500 µg/mL (≈ 83.9 to 1340 µM); in assay [11], 31.2 to 500 µg/mL (≈ 83.9 to 1340 µM); in assay [12] it was 31.2 to 500 µg/mL (≈ 83.9 to 1340 µM); in assay [18] it was 31.2 to 500 µg/mL; in assay [19] it was 31.2 to 500 µg/mL (≈ 83.9 to 1340 µM); in [20] it was 31.2 to 500 µg/mL. Also, the MIC in assay [14] lay within 31.2 to 500 µg/mL; in assay [21] it was 31.2 to 500 µg/mL (≈ 83.9 to 1340 µM); in assay [15] it was 31.2 to 500 µg/mL.
On to `Cn1c([N+](=O)[O-])cnc1-c1nnc(Cl)s1`, for which the zone of inhibition at 8 µg/disc in assay [22] and in assay [23] was 20.9 to 50 mm throughout.
Regarding `Cn1cnc([N+](=O)[O-])c1Sc1nnc(-c2ncc([N+](=O)[O-])n2C)s1`, the MIC in [1] was greater than 64 µg/mL; in [2], greater than 64 µg/mL; in assay [3], 4 to 32 µg/mL (≈ 10.9 to 86.9 µM); in assay [4], greater than 64 µg/mL; in [5], greater than 64 µg/mL.
Turning to `Cc1ncc([N+](=O)[O-])n1CCNCc1no[n+]([O-])c1C`, the MIC90 in assay [6] and in [7] was 0.5 to 32 µg/mL (≈ 1.77 to 113 µM) each time.
As to `COc1c(N2CCNC(C)C2)c(F)cc2c(=O)c(C(=O)O)cn(C3CC3)c12` (centres undefined) [GATIFLOXACIN], the MIC in assay [9] and in assay [10] was 0.06 to 16 µg/mL (≈ 0.16 to 42.6 µM) throughout.
Turning to `CCCCCCCCCCN1CCN(c2ccc3c4c(cccc24)C(=O)N(CC(O)Cn2c([N+](=O)[O-])cnc2C)C3=O)CC1` (centres undefined), the MIC in [24] is 13 to 210 µM (≈ 7.86 to 127 µg/mL); in assay [25], 13 to 210 µM (≈ 7.86 to 127 µg/mL); in assay [26], 13 to 210 µM (≈ 7.86 to 127 µg/mL); in [27], 13 to 210 µM (≈ 7.86 to 127 µg/mL); in [18] it was 13 µM; in [20], 13 to 210 µM. For the same compound, the MIC in [14] was 13 to 210 µM; in [15], 13 to 210 µM; in [28], 13 to 210 µM (≈ 7.86 to 127 µg/mL); in assay [29], 13 to 210 µM (≈ 7.86 to 127 µg/mL); in assay [30], 13 to 210 µM (≈ 7.86 to 127 µg/mL).
As for `Cc1ncc([N+](=O)[O-])n1CCNCc1no[n+]([O-])c1C(N)=O`, the MIC90 in assay [6] and in assay [7] was 0.5 to 32 µg/mL (≈ 1.61 to 103 µM) in each case.
On to `Cn1cnc([N+](=O)[O-])c1S(=O)(=O)c1nnc(-c2ncc([N+](=O)[O-])n2C)s1`, for which the MIC in [31], in [2], in assay [3], in assay [4] and in [5] was 2 to 64 µg/mL (≈ 5 to 160 µM) each time.
